Source: patent US6472348B1, “Pyridone derivatives and herbicides” (Kumiai Chemical Industry Co., Ltd., priority 1996, dated 2002)

Experiments:
soybean (Gl) = assay: Test Example 10: crop plant selectivity by upland field foliage treatment (soybean), phytotoxicity; settings: dose 1.6 g ai/10a, 14th day after treatment
Description: (§1) (Test on Crop Plant Selectivity by Upland Field Foliage Treatment)
(§2) In a plastic pot (surface area: 600 cm^2) filled with sand, soybean (Gl), pale smartweed (Po), slender amaranth (Am), common lambsquarters (Ch) and China jute (Ab) were sown and cultured in a green house for 2 weeks. […] The plants were then cultured in a green house, and the evaluation of the herbicidal effects and phytotoxicity was conducted on the 14th day after the treatment in accordance with the standards as identified in Table 47.

slender amaranth (Am) [1] = assay: Test Example 11: crop plant selectivity by upland field foliage treatment (corn), herbicidal effects; type: in vivo; design: scale not given here; settings: dose 1.6 g ai/10a
How it was run: (§3)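 Corn with pale smartweed, slender amaranth, common lambsquarters and China jute sown in sand-filled pots and grown 2 weeks in a greenhouse before foliage treatment. Herbicidal effect and crop phytotoxicity scored on day 14 after treatment against a rating standard.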

China jute (Ab) = assay: as above; type: in vivo; design: scale not given here; settings: dose 1.6 g ai/10a
How it was run: as §3

[2] = system: common lambsquarters (Ch); assay: as above; type: in vivo; design: scale not given here; settings: dose 1.6 g ai/10a
How it was run: as §3

pale smartweed (Po) [3] = assay: as above; type: in vivo; design: scale not given here; settings: dose 1.6 g ai/10a
How it was run: as §3

slender amaranth (Am) [4] = assay: Test Example 10: crop plant selectivity by upland field foliage treatment (soybean), herbicidal effects; type: in vivo; settings: dose 1.6 g ai/10a, 14th day after treatment
Description: as §1, §2

[5] = system: common lambsquarters (Ch); assay: as above; type: in vivo; settings: dose 1.6 g ai/10a, 14th day after treatment
Description: as §1, §2

pale smartweed (Po) [6] = assay: as above; type: in vivo; settings: dose 1.6 g ai/10a, 14th day after treatment
Description: as §1, §2

wheat (Tr) = assay: Test Example 5: crop plant selectivity by upland field soil treatment (wheat), phytotoxicity; type: in vivo; design: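 grade of crop injury; 5 = at least 90%; 4 = 70 to 90%; 3 = 50 to 70%; 2 = 30 to 50%; 1 = 10 to 30%; 0 = under 10%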; settings: dose 6.3 g ai/10a, 21st day after application
How it was run: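 Scores are visual ratings of herbicidal effect or wheat phytotoxicity, recorded on the 21st day after soil treatment of pots sown with wheat and weeds and kept in a greenhouse.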

pale smartweed (Po) [7] = assay: Test Example 3: herbicidal effects by upland field foliage treatment; type: in vivo; design: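 grade of growth control; 5 = at least 90%; 4 = 70 to 90%; 3 = 50 to 70%; 2 = 30 to 50%; 1 = 10 to 30%; 0 = under 10%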
How it was run: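 Weeds sown in sand-filled pots and grown 2 weeks in a greenhouse before foliage treatment. Plants then kept in the greenhouse; herbicidal effect scored on day 14 after treatment against a graded standard scale.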

[8] = upland field foliage treatment (corn test), 14th day after treatment
[9] = 100 g of the active ingredient per 10 ares, evaluated on the 14th day after treatment
[10] = 100 g active ingredient per 10 ares, evaluated 14th day after treatment

| Compound | Phytotoxicity Gl (soybean (Gl)) | Herbicidal effects Am (slender amaranth (Am) [1]; [8]) | Herbicidal effects Ab (China jute (Ab); [8]) | Herbicidal effects Ch [2, 8] | Herbicidal effects Po (pale smartweed (Po) [3]; [8]) | Herbicidal effects Am (slender amaranth (Am) [4]) | Herbicidal effects Ch [5] | Herbicidal effects Po (pale smartweed (Po) [6]) | Phytotoxicity Tr (wheat (Tr)) | Herbicidal effects Po (pale smartweed (Po) [7]; [9]) | Herbicidal effects Po (pale smartweed (Po) [7]; [10]) | Herbicidal effects Am (slender amaranth (Am) [1]; slender amaranth, foliage treatment, evaluated on 14th day after treatment, index per Table 47) | Herbicidal effects Ab (China jute (Ab); China jute, foliage treatment, evaluated on 14th day after treatment, index per Table 47) | Herbicidal effects Ch ([2]; common lambsquarters, foliage treatment, evaluated on 14th day after treatment, index per Table 47) | Herbicidal effects Po (pale smartweed (Po) [3]; pale smartweed, foliage treatment, evaluated on 14th day after treatment, index per Table 47) |
| --- | --- | --- | --- | --- | --- | --- | --- | --- | --- | --- | --- | --- | --- | --- | --- |
| Cn1c(C(F)(F)F)ccc(-c2cc(OCCCl)c(Cl)cc2F)c1=O [1-171] | 2 | 5 | 5 | 5 | 5 | 5 | 5 | 5 | 1 | 5 |  |  |  |  |  |
| CCON=Cc1cc(-c2ccc(C(F)(F)F)n(C)c2=O)c(F)cc1Cl [Compound 1-187] | 2 | 5 | 5 | 5 | 5 | 5 | 5 | 5 | 1 |  | 5 |  |  |  |  |
| CSCOc1cc(-c2ccc(C(F)(F)F)n(C)c2=O)c(F)cc1Cl [Compound 1-208] | 2 | 5 | 5 | 5 | 5 | 5 | 5 | 5 | 1 |  | 5 |  |  |  |  |
| CCCc1cc2c(-c3ccc(C(F)(F)F)n(C)c3=O)c(F)cc(Cl)c2o1 [Compound 4-3] | 2 | 5 | 5 | 5 | 5 | 5 | 5 | 5 | 2 |  | 5 |  |  |  |  |
| CCc1cc2c(Cl)cc(F)c(-c3ccc(C(F)(F)F)n(C)c3=O)c2o1 [Compound 5-2] | 2 |  |  |  |  | 5 | 5 | 5 | 1 |  | 5 | 5 | 5 | 5 | 5 |
| Cn1c(C(F)(F)F)ccc(-c2cc(C#N)c(Cl)cc2F)c1=O [Compound No. 1-119, 3-(4-chloro-5-cyano-2-fluorophenyl)-1-methyl-6-trifluoromethyl-2(1H)-pyridone] | 2 | 5 | 4 | 5 | 5 | 5 | 5 | 5 |  | 5 |  |  |  |  |  |
